Assay results reported in patent US8197860B2, “Method for enhancing nutrient absorption with astragalosides” (Nuliv Holding Inc., priority 2005, dated 2012).

Columns and labels:
Assay type in all cases: cell-based, human
Caco-2 cell monolayer [1] = test: Arginine absorption assay (transport across Caco-2 cell monolayer); set-up: key to * (regulatory effect on arginine transport): ↑: the arrows that point up represent the enhancing effect on the arginine transport; settings: for Regulatory effects on the arginine transport across the Caco2 cell monolayer: Table 3 summary; for Transport rate (arginine): 10 mM L-arginine apical
Description: (§1) To evaluate the effect of the isolated astragaloside compound on the uptake of nutrient substances across the intestinal lumen, Caco-2 cells were grown on permeable filter as an experimental model. Caco2 cells originate from human colonic adenocarcinoma and spontaneously differentiate into an enterocyte-like phenotype after two weeks. The Caco-2 cell line, derived from a human colorectal carcinoma, has been used as an in vitro model system for studying drug absorption in gastrointestinal tract. These cells form monolayers with well-developed tight-junctions, and have been evaluated in details as an in vitro model to study both transcellular transport of nutrients and drugs in intestinal lumen.
(§2) Caco-2 cells were obtained from the ATCC (American Type Culture Collection). The cells were maintained in Dulbecco's modified Eagle medium (DMEM) containing 4.5 g/L glucose and 25 mM Hepes, supplemented with 10% fetal calf serum, 100 U/mL penicillin G and […]. The medium was changed every second day. The cells were routinely checked for Mycoplasma in monthly intervals. Caco-2 cells were cultured on semi-permeable membranes to differentiate into a highly functionalized epithelial barrier with remarkable morphological and biochemical similarity to the small intestinal columnar epithelium. The Caco-2 cell monolayers could therefore be used to study the membrane transport properties of many compounds. To trypsinize the cells, the culture dish was washed once with phosphate-buffered saline (PBS) followed by adding trypsine-EDTA for 10 minutes. The trypsinized cells were separated and filtered into single cells using a 35-μm strainer cap (Falcon 2235) before being seeded for further experiments.
(§3) In measuring transport of arginine across the Caco-2 cell monolayer, both sides of the transwells were washed with arginine incubation buffer consisting of: 137 mM NaCl, 10 mM Hepes, 0.3 mM NaH2PO4, 0.3 mM K2HPO4, 5.4 mM KCl, 2.8 mM CaCl2, 1 mM MgSO4, 10 mM glucose, adjusted to pH 7.4. Then, the cell layer was preincubated in the incubation buffer at 37° C. for 1 h. The volume of incubation buffer was 0.2 mL and 0.9 mL in the apical and basolateral chambers, respectively. The cells were replaced with fresh incubation medium in both chambers prior to the transport experiment. The transport experiment was initiated by replacing the incubation solution on the apical side with solution containing 10 mM of L-arginine in which 0.125 μCi/mL of L-[^3H]-arginine was included. At designated time intervals, 10 μL-solution samples were removed from the basolateral side and radioactivity of each sample was counted using a microplate liquid scintillation counter (TopCount, Packard NXT). During the experiment, when a 10 μL-solution sample was removed from the basolateral side every time, 10 μL buffer was supplemented to keep the volume constant. The uptake of [^3H]-mannitol was used to correct for nonspecific transport of molecules across the monolayer membrane. Results were expressed as the nanomoles of arginine transport across the Caco-2 cell monolayers with respect to time in minutes (nmol/min).

Caco-2 cell monolayer [2] = test: Tryptophan absorption assay (transport across Caco-2 cell monolayer); set-up: key to * (regulatory effect on tryptophan transport): ↑: the arrows that point up represent the enhancing effect on the tryptophan transport; settings: for Regulatory effects on the tryptophan transport across the Caco2 cell monolayer: Table 4 summary; for Tryptophan transport rate: concentration from 0.01 μM to 1 mM
Description: as §1, §2, §3
The experimental procedures similar to those in Example 2 were used for measuring the uptake of tryptophan molecules across the Caco-2 membrane, except using a tryptophan incubation buffer consisting of 137 mM choline chloride, 10 mM Hepes, 0.6 mM KH2PO4, 5.4 mM KCl, 2.8 mM CaCl2, 1 mM MgSO4, and 10 mM glucose, and having its pH adjusted to 7.4. Results were expressed as the nanomoles of tryptophan transport across the Caco-2 cell monolayers with respect to time in minutes (nmol/min).

Caco2 cells = test: Folate uptake assay; set-up: key to * (regulatory effect on folate uptake): ↑: the arrows that point up represent the enhancing effect on folate uptake; settings: compound 0.1 μM; for Uptake rate (folate): 2 days, 5 μM folate, pH 6.0
Description: as §1, §2
Caco-2 cells (5×10^4) were seeded in a 48-well plate and maintained in culture medium (DMEM with 10% FBS, 1% nonessential amino acids, L-glutamine, penicillin G (100 U/mL), streptomycin (10 μg/mL), and amphotericin B (2.5 μg/mL) in a 37° C. incubator for 10 days for the cells to differentiate. The culture medium was changed once every two days. The cells were then washed with PBS before replenishing with the culture medium containing 5% FBS and various astragalosides at the indicated concentrations (0.01, 0.1 and 1 μM) for 48 hours. The Caco2 cells were washed out of remaining glucose with PBS and replaced in the glucose buffer (80 mM NaCl, 100 mM mannitol, 20 mM Tris-HCl, pH 7.4, 3 mM K2HPO4, 1 mM CaCl2, 1 mg/mL BSA) for 1 hour. Glucose uptake was initiated by replacing the glucose buffer with 0.2 ml of glucose buffer containing 2 μCi/mL of ^14C-glucose and unlabeled cold glucose to give a final glucose concentration of 25 mM. Glucose uptake was stopped by removing the glucose buffer and washing with PBS at designated time intervals. The cells were lysed in 0.2 mL of 0.2 N NaOH, and 20 μL of the cell lysate were transferred to the filter-bottomed UniFilter plates (Perkin-Elmer, Wellesley, Mass., USA) and dried in a vacuum oven at 37° C. The bottom of the UniFilter plate was sealed and 25 μL of the counting solution were added into each well. Adhesive plate sealers were used in place of the lids and radioactivity of each sample was counted using the microplate liquid scintillation counter (TopCount, Packard NXT, Packard BioScience Company, Meriden, Conn., USA). The amount of glucose accumulated in the cells was calculated and normalized to protein concentration, and uptake rate was expressed as nanomoles of glucose per minutes per milligram of cell protein (nmol/min/mg). Protein concentration was determined by a standard Bicinchoninic acid (BCA) protein assay. Nonspecific glucose uptake was measured by adding 2 μCi of L-[^14C]-glucose and subtracting from each determination to obtain specific glucose uptake.
The Caco2 cells were subjected to folate uptake test in a manner similar to that described in the glucose uptake assay in Example 1 above. […]

[3] = concentration from 0.01 μM to 1 μM

CC(=O)O[C@H]1[C@H](O[C@H]2CC[C@]34C[C@]35CC[C@]3(C)[C@@H]([C@@]6(C)CC[C@@H](C(C)(C)O)O6)[C@@H](O)C[C@@]3(C)[C@@H]5C[C@H](O[C@@H]3O[C@H](CO)[C@@H](O)[C@H](O)[C@H]3O)[C@H]4C2(C)C)OC[C@@H](O)[C@@H]1O [AS2, astragaloside II]
Regulatory effects on the arginine transport across the Caco2 cell monolayer (Caco-2 cell monolayer [1]): had regulatory effects on the arginine transport | * (regulatory effect on arginine transport) (Caco-2 cell monolayer [1]; compound 0.001 μM): ↑ | Percentage (arginine transport, control = 100) (Caco-2 cell monolayer [1]; compound 0.001 μM): 136.97% | Transport rate (arginine) (Caco-2 cell monolayer [1]; compound 0.001 μM): 14.6355 ± 1.2910 nmol/min | * (regulatory effect on arginine transport) (Caco-2 cell monolayer [1]; compound 0.01 μM): ↑ | Percentage (arginine transport, control = 100) (Caco-2 cell monolayer [1]; compound 0.01 μM): 151.94% | Transport rate (arginine) (Caco-2 cell monolayer [1]; compound 0.01 μM): 16.2358 ± 1.6190 nmol/min | * (regulatory effect on arginine transport) (Caco-2 cell monolayer [1]; compound 0.1 μM): ↑ | Percentage (arginine transport, control = 100) (Caco-2 cell monolayer [1]; compound 0.1 μM): 161.69% | Transport rate (arginine) (Caco-2 cell monolayer [1]; compound 0.1 μM): 17.2771 ± 1.6170 nmol/min | Arginine transport rate (Caco-2 cell monolayer [1]; concentration from 0.001 μM to 0.1 μM): increased | Regulatory effects on the tryptophan transport across the Caco2 cell monolayer (Caco-2 cell monolayer [2]): had regulatory effects on the tryptophan transport | * (regulatory effect on tryptophan transport) (Caco-2 cell monolayer [2]; compound 0.01 μM): ↑ | Percentage (tryptophan transport, control = 100) (Caco-2 cell monolayer [2]; compound 0.01 μM): 115.07% | Transport rate (tryptophan) (Caco-2 cell monolayer [2]; compound 0.01 μM): 10.290 ± 0.4115 nmol/min | * (regulatory effect on tryptophan transport) (Caco-2 cell monolayer [2]; compound 0.1 μM): ↑ | Percentage (tryptophan transport, control = 100) (Caco-2 cell monolayer [2]; compound 0.1 μM): 130.28% | Transport rate (tryptophan) (Caco-2 cell monolayer [2]; compound 0.1 μM): 11.650 ± 0.5789 nmol/min | Tryptophan transport rate (Caco-2 cell monolayer [2]): increased | * (regulatory effect on folate uptake) (Caco2 cells): ↑ | Percentage (folate uptake vs own control) (Caco2 cells): 129.05% | Uptake rate (folate) (Caco2 cells): 69.970 ± 3.7720 pmol/mg/min

CC(C)(O)[C@@H]1CC[C@](C)([C@H]2[C@@H](O)C[C@@]3(C)[C@@H]4C[C@H](O)[C@H]5C(C)(C)[C@@H](O[C@@H]6OC[C@@H](O)[C@H](O)[C@H]6O[C@@H]6O[C@H](CO)[C@@H](O)[C@H](O)[C@H]6O)CC[C@@]56C[C@@]46CC[C@]23C)O1 [AS3, astragaloside III]
Regulatory effects on the arginine transport across the Caco2 cell monolayer (Caco-2 cell monolayer [1]): had regulatory effects on the arginine transport | * (regulatory effect on arginine transport) (Caco-2 cell monolayer [1]; compound 0.01 μM): ↑ | Percentage (arginine transport, control = 100) (Caco-2 cell monolayer [1]; compound 0.01 μM): 121.74% | Transport rate (arginine) (Caco-2 cell monolayer [1]; compound 0.01 μM): 13.0084 ± 1.0510 nmol/min | * (regulatory effect on arginine transport) (Caco-2 cell monolayer [1]; compound 0.1 μM): ↑ | Percentage (arginine transport, control = 100) (Caco-2 cell monolayer [1]; compound 0.1 μM): 124.33% | Transport rate (arginine) (Caco-2 cell monolayer [1]; compound 0.1 μM): 13.2858 ± 1.4110 nmol/min | * (regulatory effect on arginine transport) (Caco-2 cell monolayer [1]; compound 1 μM): ↑ | Percentage (arginine transport, control = 100) (Caco-2 cell monolayer [1]; compound 1 μM): 148.18% | Transport rate (arginine) (Caco-2 cell monolayer [1]; compound 1 μM): 15.8341 ± 1.0000 nmol/min | Arginine transport rate (Caco-2 cell monolayer [1]; [3]): increased | Regulatory effects on the tryptophan transport across the Caco2 cell monolayer (Caco-2 cell monolayer [2]): had regulatory effects on the tryptophan transport | * (regulatory effect on tryptophan transport) (Caco-2 cell monolayer [2]; compound 0.01 μM): ↑ | Percentage (tryptophan transport, control = 100) (Caco-2 cell monolayer [2]; compound 0.01 μM): 159.81% | Transport rate (tryptophan) (Caco-2 cell monolayer [2]; compound 0.01 μM): 14.290 ± 1.3910 nmol/min | * (regulatory effect on tryptophan transport) (Caco-2 cell monolayer [2]; compound 0.1 μM): ↑ | Percentage (tryptophan transport, control = 100) (Caco-2 cell monolayer [2]; compound 0.1 μM): 151.98% | Transport rate (tryptophan) (Caco-2 cell monolayer [2]; compound 0.1 μM): 13.590 ± 1.0080 nmol/min | * (regulatory effect on tryptophan transport) (Caco-2 cell monolayer [2]; compound 1 μM): ↑ | Percentage (tryptophan transport, control = 100) (Caco-2 cell monolayer [2]; compound 1 μM): 270.63% | Transport rate (tryptophan) (Caco-2 cell monolayer [2]; compound 1 μM): 24.200 ± 1.0260 nmol/min | Tryptophan transport rate (Caco-2 cell monolayer [2]): increased | * (regulatory effect on folate uptake) (Caco2 cells): ↑ | Percentage (folate uptake vs own control) (Caco2 cells): 145.41% | Uptake rate (folate) (Caco2 cells): 80.380 ± 6.2170 pmol/mg/min

CC(=O)O[C@H]1[C@H](O[C@H]2CC[C@]34C[C@]35CC[C@]3(C)[C@@H]([C@@]6(C)CC[C@@H](C(C)(C)O)O6)[C@@H](O)C[C@@]3(C)[C@@H]5C[C@H](O[C@@H]3O[C@H](CO)[C@@H](O)[C@H](O)[C@H]3O)[C@H]4C2(C)C)OC[C@@H](OC(C)=O)[C@@H]1O [IsoAS1, isoastragaloside I]
Regulatory effects on the arginine transport across the Caco2 cell monolayer (Caco-2 cell monolayer [1]): had regulatory effects on the arginine transport | * (regulatory effect on arginine transport) (Caco-2 cell monolayer [1]; compound 0.01 μM): ↑ | Percentage (arginine transport, control = 100) (Caco-2 cell monolayer [1]; compound 0.01 μM): 135.49% | Transport rate (arginine) (Caco-2 cell monolayer [1]; compound 0.01 μM): 14.4776 ± 0.5519 nmol/min | * (regulatory effect on arginine transport) (Caco-2 cell monolayer [1]; compound 0.1 μM): ↑ | Percentage (arginine transport, control = 100) (Caco-2 cell monolayer [1]; compound 0.1 μM): 199.44% | Transport rate (arginine) (Caco-2 cell monolayer [1]; compound 0.1 μM): 21.3107 ± 1.5130 nmol/min | * (regulatory effect on arginine transport) (Caco-2 cell monolayer [1]; compound 1 μM): ↑ | Percentage (arginine transport, control = 100) (Caco-2 cell monolayer [1]; compound 1 μM): 135.41% | Transport rate (arginine) (Caco-2 cell monolayer [1]; compound 1 μM): 14.4734 ± 1.1350 nmol/min | Arginine transport rate (Caco-2 cell monolayer [1]; [3]): increased | Regulatory effects on the tryptophan transport across the Caco2 cell monolayer (Caco-2 cell monolayer [2]): had regulatory effects on the tryptophan transport | * (regulatory effect on tryptophan transport) (Caco-2 cell monolayer [2]; compound 0.01 μM): ↑ | Percentage (tryptophan transport, control = 100) (Caco-2 cell monolayer [2]; compound 0.01 μM): 115.97% | Transport rate (tryptophan) (Caco-2 cell monolayer [2]; compound 0.01 μM): 10.370 ± 0.8808 nmol/min | * (regulatory effect on tryptophan transport) (Caco-2 cell monolayer [2]; compound 0.1 μM): ↑ | Percentage (tryptophan transport, control = 100) (Caco-2 cell monolayer [2]; compound 0.1 μM): 149.52% | Transport rate (tryptophan) (Caco-2 cell monolayer [2]; compound 0.1 μM): 13.370 ± 0.3301 nmol/min | * (regulatory effect on tryptophan transport) (Caco-2 cell monolayer [2]; compound 1 μM): ↑ | Percentage (tryptophan transport, control = 100) (Caco-2 cell monolayer [2]; compound 1 μM): 118.54% | Transport rate (tryptophan) (Caco-2 cell monolayer [2]; compound 1 μM): 10.600 ± 0.8058 nmol/min | Tryptophan transport rate (Caco-2 cell monolayer [2]): increased | * (regulatory effect on folate uptake) (Caco2 cells): ↑ | Percentage (folate uptake vs own control) (Caco2 cells): 144.83% | Uptake rate (folate) (Caco2 cells): 73.460 ± 3.6060 pmol/mg/min
